Test [1] concerns the target T1, Dual specificity tyrosine-phosphorylation-regulated kinase 2 (Homo sapiens) (UniProt Q92630).
T1 sequence (whole entry): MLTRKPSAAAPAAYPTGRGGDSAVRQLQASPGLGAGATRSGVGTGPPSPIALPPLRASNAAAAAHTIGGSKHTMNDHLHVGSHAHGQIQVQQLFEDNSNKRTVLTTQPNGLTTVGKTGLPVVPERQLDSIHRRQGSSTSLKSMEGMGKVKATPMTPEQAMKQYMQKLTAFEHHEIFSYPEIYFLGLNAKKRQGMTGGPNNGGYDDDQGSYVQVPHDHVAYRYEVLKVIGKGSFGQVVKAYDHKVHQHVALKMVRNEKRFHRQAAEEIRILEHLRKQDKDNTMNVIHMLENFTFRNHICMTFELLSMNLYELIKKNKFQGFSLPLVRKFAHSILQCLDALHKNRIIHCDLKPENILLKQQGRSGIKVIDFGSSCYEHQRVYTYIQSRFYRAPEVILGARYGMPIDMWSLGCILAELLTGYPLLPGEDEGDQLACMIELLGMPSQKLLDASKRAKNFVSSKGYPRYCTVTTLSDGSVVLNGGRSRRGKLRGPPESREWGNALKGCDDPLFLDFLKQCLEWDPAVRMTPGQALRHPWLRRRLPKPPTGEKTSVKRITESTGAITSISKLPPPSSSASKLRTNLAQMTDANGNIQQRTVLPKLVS
The test can be described thus: Percentage DYRK2 activity remaining in the presence of 0.01uM inhibitor.

In test [2] the target is Homeodomain-interacting protein kinase 2 (Homo sapiens) (UniProt Q9H2X6). Kind of test: Percentage HIPK2 activity remaining in the presence of 0.01uM inhibitor.
The target of test [3] is Homeodomain-interacting protein kinase 3 (Homo sapiens) (UniProt Q9H422). The test can be described thus: Percentage HIPK3 activity remaining in the presence of 0.1uM inhibitor.
Homeodomain-interacting protein kinase 3 (Homo sapiens), sequence (Q9H422 whole entry, looked up): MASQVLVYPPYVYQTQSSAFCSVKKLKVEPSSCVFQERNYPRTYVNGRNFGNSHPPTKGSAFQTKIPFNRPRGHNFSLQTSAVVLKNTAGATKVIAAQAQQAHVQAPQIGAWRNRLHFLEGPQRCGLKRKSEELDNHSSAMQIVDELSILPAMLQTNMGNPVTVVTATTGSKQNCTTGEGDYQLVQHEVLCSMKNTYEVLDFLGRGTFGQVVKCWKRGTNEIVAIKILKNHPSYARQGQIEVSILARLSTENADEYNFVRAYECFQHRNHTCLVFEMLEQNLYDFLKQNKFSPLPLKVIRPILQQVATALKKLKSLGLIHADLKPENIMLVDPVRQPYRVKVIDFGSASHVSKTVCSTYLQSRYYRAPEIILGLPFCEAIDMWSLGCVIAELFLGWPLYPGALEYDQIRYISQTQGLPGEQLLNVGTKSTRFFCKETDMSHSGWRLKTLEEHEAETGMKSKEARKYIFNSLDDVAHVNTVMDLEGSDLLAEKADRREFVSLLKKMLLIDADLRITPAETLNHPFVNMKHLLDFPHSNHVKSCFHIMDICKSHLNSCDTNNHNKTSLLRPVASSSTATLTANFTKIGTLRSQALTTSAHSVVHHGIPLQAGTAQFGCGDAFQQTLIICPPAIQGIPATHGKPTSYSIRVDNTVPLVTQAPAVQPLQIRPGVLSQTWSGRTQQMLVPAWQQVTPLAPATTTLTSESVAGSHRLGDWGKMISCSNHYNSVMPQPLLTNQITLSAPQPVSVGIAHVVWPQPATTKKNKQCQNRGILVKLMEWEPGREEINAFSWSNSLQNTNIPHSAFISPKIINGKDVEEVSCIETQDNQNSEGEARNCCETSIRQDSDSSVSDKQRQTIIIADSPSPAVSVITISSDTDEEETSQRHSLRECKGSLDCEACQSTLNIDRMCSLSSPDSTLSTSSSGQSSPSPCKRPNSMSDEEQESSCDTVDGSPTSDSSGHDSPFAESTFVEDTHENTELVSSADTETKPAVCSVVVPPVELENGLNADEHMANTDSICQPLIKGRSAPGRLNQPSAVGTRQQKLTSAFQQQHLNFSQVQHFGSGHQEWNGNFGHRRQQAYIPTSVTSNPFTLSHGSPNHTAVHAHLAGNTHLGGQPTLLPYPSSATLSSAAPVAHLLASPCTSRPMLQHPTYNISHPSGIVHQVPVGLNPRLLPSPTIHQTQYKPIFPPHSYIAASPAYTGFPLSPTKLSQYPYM
Test [4] has as its target Maternal embryonic leucine zipper kinase (Homo sapiens) (UniProt Q14680). The test can be described thus: Percentage MELK activity remaining in the presence of 0.01uM inhibitor.
Test [5] deals with T2, Serine/threonine-protein kinase 3 (Homo sapiens) (UniProt Q13188).
T2 sequence (whole entry): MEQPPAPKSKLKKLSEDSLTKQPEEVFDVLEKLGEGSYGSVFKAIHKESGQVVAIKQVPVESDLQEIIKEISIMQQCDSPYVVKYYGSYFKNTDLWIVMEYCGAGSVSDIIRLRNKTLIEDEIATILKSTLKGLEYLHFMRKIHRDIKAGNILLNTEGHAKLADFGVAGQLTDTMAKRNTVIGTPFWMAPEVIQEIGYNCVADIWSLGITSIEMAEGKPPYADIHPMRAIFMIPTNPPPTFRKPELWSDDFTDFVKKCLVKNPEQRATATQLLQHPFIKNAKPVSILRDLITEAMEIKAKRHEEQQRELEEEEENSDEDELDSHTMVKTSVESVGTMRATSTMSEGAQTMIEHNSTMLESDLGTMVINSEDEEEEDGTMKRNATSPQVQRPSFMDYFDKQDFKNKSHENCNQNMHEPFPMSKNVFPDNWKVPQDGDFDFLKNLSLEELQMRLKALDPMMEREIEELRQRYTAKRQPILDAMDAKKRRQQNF
The test can be described thus: Percentage MST2 activity remaining in the presence of 0.01uM inhibitor.

Test [6] concerns the target T3, Serine/threonine-protein kinase Sgk1 (Homo sapiens) (UniProt O00141).
T3 sequence (whole entry): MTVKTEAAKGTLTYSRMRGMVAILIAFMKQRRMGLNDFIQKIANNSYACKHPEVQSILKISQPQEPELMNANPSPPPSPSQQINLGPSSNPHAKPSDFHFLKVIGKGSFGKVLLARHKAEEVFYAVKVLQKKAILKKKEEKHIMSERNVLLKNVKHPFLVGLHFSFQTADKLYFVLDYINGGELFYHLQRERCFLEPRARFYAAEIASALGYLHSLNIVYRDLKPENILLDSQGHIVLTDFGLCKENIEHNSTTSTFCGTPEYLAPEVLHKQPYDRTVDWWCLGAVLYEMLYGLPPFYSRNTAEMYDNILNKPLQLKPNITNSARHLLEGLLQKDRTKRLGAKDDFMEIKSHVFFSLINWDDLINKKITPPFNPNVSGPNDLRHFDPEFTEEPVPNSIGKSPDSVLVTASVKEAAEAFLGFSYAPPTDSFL
The test can be described thus: Percentage SGK1 activity remaining in the presence of 0.01uM inhibitor.

In test [7] the target is Serine/threonine-protein kinase pim-3 (Homo sapiens, UniProt Q86V86). Kind of test: Percentage PIM3 activity remaining in the presence of 0.01uM inhibitor.
The target of test [8] is Mitogen-activated protein kinase 9 (Homo sapiens, UniProt P45984). Kind of test: Percentage JNK2 activity remaining in the presence of 0.01uM inhibitor.
Mitogen-activated protein kinase 9, sequence (P45984 whole entry, looked up): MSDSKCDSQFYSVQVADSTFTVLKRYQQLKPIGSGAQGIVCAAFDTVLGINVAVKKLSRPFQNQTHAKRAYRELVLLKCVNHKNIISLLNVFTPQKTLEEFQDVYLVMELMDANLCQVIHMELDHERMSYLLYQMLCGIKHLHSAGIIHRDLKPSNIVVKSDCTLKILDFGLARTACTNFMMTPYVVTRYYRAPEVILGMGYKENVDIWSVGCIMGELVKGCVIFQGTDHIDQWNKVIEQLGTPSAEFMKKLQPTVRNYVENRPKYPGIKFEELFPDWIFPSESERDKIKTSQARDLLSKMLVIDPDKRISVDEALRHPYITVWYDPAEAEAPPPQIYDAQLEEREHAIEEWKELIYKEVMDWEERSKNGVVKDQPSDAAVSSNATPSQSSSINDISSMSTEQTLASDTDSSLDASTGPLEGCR
The target of test [9] is Ribosomal protein S6 kinase alpha-5 (Homo sapiens) (UniProt O75582). Kind of test: Percentage MSK1 activity remaining in the presence of 0.01uM inhibitor.
Ribosomal protein S6 kinase alpha-5 (Homo sapiens), sequence (O75582 whole entry, looked up): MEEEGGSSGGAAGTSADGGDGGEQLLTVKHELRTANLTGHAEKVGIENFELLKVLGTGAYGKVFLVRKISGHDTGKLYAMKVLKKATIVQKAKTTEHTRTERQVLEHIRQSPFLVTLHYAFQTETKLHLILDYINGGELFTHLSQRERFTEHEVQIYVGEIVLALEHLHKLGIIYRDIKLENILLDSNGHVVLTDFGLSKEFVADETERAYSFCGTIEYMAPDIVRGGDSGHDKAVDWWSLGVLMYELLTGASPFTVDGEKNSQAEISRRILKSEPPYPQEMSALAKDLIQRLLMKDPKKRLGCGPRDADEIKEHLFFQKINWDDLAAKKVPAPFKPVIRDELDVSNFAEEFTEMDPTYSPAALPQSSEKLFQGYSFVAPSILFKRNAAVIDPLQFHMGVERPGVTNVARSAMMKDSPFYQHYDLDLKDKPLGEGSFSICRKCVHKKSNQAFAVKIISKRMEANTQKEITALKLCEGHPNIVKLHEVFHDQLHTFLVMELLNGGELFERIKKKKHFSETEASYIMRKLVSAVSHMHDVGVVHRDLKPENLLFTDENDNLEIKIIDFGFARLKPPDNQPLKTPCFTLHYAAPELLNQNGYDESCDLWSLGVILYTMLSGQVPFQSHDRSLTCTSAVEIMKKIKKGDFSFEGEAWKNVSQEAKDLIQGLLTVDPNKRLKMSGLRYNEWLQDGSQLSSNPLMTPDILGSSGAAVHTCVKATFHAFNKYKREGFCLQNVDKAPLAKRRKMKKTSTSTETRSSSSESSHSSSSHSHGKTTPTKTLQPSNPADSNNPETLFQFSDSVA
The target of test [10] is Serine/threonine-protein kinase PAK 4 (Homo sapiens, UniProt O96013). The test can be described thus: Percentage PAK4 activity remaining in the presence of 0.01uM inhibitor.
The target in test [11] is T4, Inhibitor of nuclear factor kappa-B kinase subunit beta (Homo sapiens) (UniProt O14920).
T4 sequence (whole entry): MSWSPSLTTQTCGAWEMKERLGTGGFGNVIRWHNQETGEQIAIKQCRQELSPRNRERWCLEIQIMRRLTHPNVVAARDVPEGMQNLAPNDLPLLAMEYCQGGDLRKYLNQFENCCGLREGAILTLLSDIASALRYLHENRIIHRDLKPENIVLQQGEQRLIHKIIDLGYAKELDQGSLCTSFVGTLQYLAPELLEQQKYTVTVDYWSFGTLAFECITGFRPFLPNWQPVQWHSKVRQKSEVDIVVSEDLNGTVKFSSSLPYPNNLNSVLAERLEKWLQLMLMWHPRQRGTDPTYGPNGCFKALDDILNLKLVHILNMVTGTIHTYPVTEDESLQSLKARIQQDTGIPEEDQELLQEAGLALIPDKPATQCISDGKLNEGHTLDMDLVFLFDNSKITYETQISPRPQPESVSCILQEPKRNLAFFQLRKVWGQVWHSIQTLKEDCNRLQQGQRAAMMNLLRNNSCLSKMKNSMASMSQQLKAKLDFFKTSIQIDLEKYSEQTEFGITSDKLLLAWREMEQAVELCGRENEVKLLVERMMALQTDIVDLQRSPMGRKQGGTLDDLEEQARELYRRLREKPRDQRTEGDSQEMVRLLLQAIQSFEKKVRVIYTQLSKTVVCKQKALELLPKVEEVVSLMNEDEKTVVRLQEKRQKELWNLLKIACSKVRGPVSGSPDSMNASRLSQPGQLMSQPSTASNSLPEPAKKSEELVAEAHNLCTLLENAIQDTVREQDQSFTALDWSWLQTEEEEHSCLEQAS
Kind of test: Percentage IKK-beta activity remaining in the presence of 0.01uM inhibitor.

Test [12] has as its target MAP kinase-interacting serine/threonine-protein kinase 1 (Homo sapiens) (UniProt Q9BUB5). The test can be described thus: Percentage MNK1 activity remaining in the presence of 0.01uM inhibitor.
Test [13] deals with Serine/threonine-protein kinase N2 (Homo sapiens) (UniProt Q16513). Kind of test: Percentage PRK2 activity remaining in the presence of 0.01uM inhibitor.
Serine/threonine-protein kinase N2 (Homo sapiens), sequence (Q16513 whole entry, looked up): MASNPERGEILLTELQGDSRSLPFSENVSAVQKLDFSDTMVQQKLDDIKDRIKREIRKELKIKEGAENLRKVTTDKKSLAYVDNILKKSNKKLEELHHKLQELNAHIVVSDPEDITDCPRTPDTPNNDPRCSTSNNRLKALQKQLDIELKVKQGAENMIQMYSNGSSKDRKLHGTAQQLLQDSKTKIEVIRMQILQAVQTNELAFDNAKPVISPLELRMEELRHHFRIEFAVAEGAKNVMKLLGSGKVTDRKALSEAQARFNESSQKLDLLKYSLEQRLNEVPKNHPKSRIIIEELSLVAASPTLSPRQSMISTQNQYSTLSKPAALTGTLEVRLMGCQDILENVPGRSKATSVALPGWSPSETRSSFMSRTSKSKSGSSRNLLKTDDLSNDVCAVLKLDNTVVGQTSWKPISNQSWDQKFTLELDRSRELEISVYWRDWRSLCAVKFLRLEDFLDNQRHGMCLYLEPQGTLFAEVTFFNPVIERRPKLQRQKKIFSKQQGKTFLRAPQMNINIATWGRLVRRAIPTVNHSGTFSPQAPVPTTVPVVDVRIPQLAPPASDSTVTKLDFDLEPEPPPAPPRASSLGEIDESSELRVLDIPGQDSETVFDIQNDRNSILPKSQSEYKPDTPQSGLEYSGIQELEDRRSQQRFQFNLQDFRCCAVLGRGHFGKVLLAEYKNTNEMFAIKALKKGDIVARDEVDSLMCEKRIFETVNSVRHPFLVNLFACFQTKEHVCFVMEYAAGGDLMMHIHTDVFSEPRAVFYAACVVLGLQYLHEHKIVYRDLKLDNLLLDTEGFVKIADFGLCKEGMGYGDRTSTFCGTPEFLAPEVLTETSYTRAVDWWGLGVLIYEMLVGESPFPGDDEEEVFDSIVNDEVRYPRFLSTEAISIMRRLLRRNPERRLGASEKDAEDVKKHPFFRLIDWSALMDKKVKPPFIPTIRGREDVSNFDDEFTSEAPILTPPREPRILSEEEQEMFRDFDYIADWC

MAP kinase-interacting serine/threonine-protein kinase 1 (Homo sapiens), sequence (Q9BUB5 whole entry, looked up): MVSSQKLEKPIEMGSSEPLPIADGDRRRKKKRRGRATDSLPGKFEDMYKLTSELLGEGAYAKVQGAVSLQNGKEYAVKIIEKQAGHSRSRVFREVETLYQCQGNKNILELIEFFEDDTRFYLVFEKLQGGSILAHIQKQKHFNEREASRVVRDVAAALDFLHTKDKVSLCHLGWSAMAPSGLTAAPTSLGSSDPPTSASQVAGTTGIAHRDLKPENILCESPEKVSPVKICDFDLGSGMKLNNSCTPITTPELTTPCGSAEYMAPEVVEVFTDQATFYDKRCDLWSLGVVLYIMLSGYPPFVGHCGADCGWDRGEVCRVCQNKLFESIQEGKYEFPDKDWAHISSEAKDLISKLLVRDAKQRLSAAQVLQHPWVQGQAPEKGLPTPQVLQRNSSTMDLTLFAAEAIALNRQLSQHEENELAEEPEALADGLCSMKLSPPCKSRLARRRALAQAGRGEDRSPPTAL
Maternal embryonic leucine zipper kinase (Homo sapiens), sequence (Q14680 whole entry, looked up): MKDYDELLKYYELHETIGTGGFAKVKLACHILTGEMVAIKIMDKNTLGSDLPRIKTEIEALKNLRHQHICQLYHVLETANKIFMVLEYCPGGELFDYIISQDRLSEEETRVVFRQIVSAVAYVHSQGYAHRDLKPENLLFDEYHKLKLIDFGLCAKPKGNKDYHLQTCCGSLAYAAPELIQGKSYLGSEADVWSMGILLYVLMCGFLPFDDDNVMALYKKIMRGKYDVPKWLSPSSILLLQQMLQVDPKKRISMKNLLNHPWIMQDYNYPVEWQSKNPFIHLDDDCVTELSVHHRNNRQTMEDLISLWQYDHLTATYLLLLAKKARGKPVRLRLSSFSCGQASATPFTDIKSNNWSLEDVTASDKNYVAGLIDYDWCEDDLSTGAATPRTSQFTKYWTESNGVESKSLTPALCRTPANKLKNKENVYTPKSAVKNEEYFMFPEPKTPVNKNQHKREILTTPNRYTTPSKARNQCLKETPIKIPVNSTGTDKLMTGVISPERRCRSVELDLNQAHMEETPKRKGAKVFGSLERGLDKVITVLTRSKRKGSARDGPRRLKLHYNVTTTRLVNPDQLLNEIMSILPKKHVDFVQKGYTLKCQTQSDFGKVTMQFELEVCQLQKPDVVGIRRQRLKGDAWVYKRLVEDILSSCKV

In the case of `Cc1n[nH]c2ccc(-c3cncc(OC[C@@H](N)Cc4c[nH]c5ccccc45)c3)cc12`, the Activity in test [1] was found to be 79%; in test [2], 73%; in [3], 71%; in [4], 96%; in test [5] it was 76%; in [6], 78%. Moreover, the Activity in [7] is 54%; in test [8] it was 94%; in test [9] (filed as antagonist), 19%; in test [10], 99%; in test [11], 93%; in test [12] it was 120%. Besides, the Activity in test [13] (filed as antagonist) was 17%.
`O=C(NCCCNc1nc(Nc2cccc(NC(=O)N3CCCC3)c2)ncc1I)c1cccs1`: the Activity in test [1] came to 105%; in [2], 95%; in [3], 94%; in test [4] it was 95%; in [5], 96%; in test [6], 87%. Moreover, the Activity in test [7] is 96%; in test [8], 101%; in test [9], 88%; in [10], 91%; in test [11] it was 108%; in test [12] it was 80%. Moreover, the Activity in test [13] amounted to 79%.
Turning to `Cn1c2ccccc2c2c3c(c4c5ccccc5n(CCC#N)c4c21)CNC3=O`, the Activity in test [3] turned out to be 74%.
As to `Cn1cc(C2=C(c3cn(CCCSC(=N)N)c4ccccc34)C(=O)NC2=O)c2ccccc21`, in [3], the Activity turned out to be 78%.
For `CN[C@@H]1C[C@H]2O[C@@](C)([C@@H]1OC)n1c3ccccc3c3c4c(c5c6ccccc6n2c5c31)C(=O)N[C@H]4O` (stereo in doubt), the Activity is 92% in [1]; 109% in [2]; 53% in test [4]; 2% in [5] (filed as antagonist); 83% in test [6]; 8% in test [7] (filed as antagonist). In addition, the Activity in [8] was 92%; in [9], 68%; in [10] (filed as antagonist), 33%; in [11], 86%; in test [12], 85%; in [13] (filed as antagonist), 10%.
With `CC(C)CCN1c2nc(Nc3cc(F)c(O)c(F)c3)ncc2N(C)C(=O)C1C` (stereo unspecified), the Activity in test [3] came out at 104%.
